Consider 26 molecules from patent US20230357152A1 (priority 2020, published 2023).

Holding throughout (test): microbe, parasite or virus in culture
Type in all cases: cell-based

The test system of one test is Phytophthora infestans. As to conditions: 168 h, read-out: Fungal growth at 31 ppm (%) PHYTIN.
The subject of another test is Septoria tritici. The following applies: Zymoseptoria tritici, 168 h.
The subject of another test is Fusarium culmorum. The following applies: 168 h.

SMILES strings stand for the structures.

As to `CO/N=C(/C(=O)OC)c1cccc(C)c1CO/N=C(\C)c1ncsc1C(F)(F)F` [Example 40], the activity at 31 ppm in the test with Phytophthora infestans turned out to be 8%; in the test on Septoria tritici, 0%.

On to `CO/N=C(/C(=O)OC)c1cccc(C(F)(F)F)c1CO/N=C(\C)c1cc(-c2ccc(Cl)cc2)on1` [Example 16], for which the activity at 31 ppm with Fusarium culmorum is 19%.

Take `CO/N=C(/C(=O)OC)c1cccc(C)c1CO/N=C(\C)c1cc(-c2ccc(Cl)cc2)sn1` [Example 7]: in the test on Fusarium culmorum, the activity at 31 ppm was determined as 11%.

As to `CNC(=O)/C(=N/OC)c1cccc(C(F)(F)F)c1CO/N=C(\C)c1cc(-c2ccc(Cl)cc2)on1` [Example 17], the activity at 31 ppm was found to be 0% with Phytophthora infestans, 1% in the test on Septoria tritici and 14% with Fusarium culmorum.

In the case of `CO/N=C(/C(=O)OC)c1cccc(C)c1CO/N=C(\C)c1ccc(Cl)nn1` [Example 91], the activity at 31 ppm in the test with Phytophthora infestans was 0%; in the test on Fusarium culmorum, 16%.

Turning to `CO/N=C(/C(=O)OC)c1cccc(C)c1CO/N=C(\C)c1cn(C)nc1C(F)(F)F` [Example 51], the activity at 31 ppm in the test with Septoria tritici stood at 3%; in the test with Fusarium culmorum it was 8%.

Regarding `CO/N=C(/C(=O)OC)c1cccc(C)c1CO/N=C(\C)c1nccc(C(F)(F)F)n1` [Example 71], the activity at 31 ppm in the test on Phytophthora infestans and with Septoria tritici was 0% each time.

On to `CO/N=C(/C(=O)OC)c1cccc(C)c1CO/N=C(\C)c1cc(-c2cccc(C(F)(F)F)c2)on1` [Example 19], for which the activity at 31 ppm in the test on Fusarium culmorum was determined as 20%.

`CO/N=C(/C(=O)OC)c1cccc(C)c1CO/N=C(\C)c1ccc(C#CC2CC2)nc1` [Example 68]: the activity at 31 ppm is 3% with Phytophthora infestans and 13% in the test on Fusarium culmorum.

On to `CNC(=O)/C(=N/OC)c1cccc(C)c1CO/N=C(\C)c1nccc(C(F)(F)F)n1` [Example 73], for which the activity at 31 ppm amounted to 1% in the test with Phytophthora infestans, 21% in the test on Septoria tritici and 13% in the test on Fusarium culmorum.

In the case of `CNC(=O)/C(=N/OC)c1cccc(C)c1CO/N=C(\C)c1cc(OC)ccn1` [Example 56], the figures for the activity at 31 ppm with Phytophthora infestans and with Fusarium culmorum were 0% and 11%, respectively.

Regarding `CNC(=O)/C(=N/OC)c1cccc(C)c1CO/N=C(\C)c1cncc(/C(C)=N/OC)n1` [Example 83], the activity at 31 ppm with Fusarium culmorum is 21%.

Regarding `CNC(=O)/C(=N/OC)c1cccc(C)c1CO/N=C(\C)c1cc(-c2ccc(Cl)cc2)on1` [Example 20], the activity at 31 ppm in the test with Phytophthora infestans came out at 3%; with Fusarium culmorum, 17%.

In the case of `CNC(=O)/C(=N/OC)c1cccc(C)c1CO/N=C(\C)c1cc(-c2ccccc2)sn1` [Example 38], the activity at 31 ppm stood at 6% in the test with Phytophthora infestans and 16% with Fusarium culmorum.

Take `CNC(=O)/C(=N/OC)c1cccc(C)c1CO/N=C(\C)c1cc(C(F)(F)F)nc(C)n1` [Example 58]: the results for the activity at 31 ppm in the test with Phytophthora infestans, in the test on Septoria tritici and with Fusarium culmorum were 11%, 21% and 17%, respectively.

Turning to `CO/N=C(/C(=O)OC)c1cccc(C)c1CO/N=C(\C)c1cncn1C` [Example 102], the activity at 31 ppm in the test with Phytophthora infestans worked out at 0%.

Consider `CNC(=O)/C(=N/OC)c1cccc(C)c1CO/N=C(\C)c1cnc(C)c(F)c1` [Example 101], for which the activity at 31 ppm is 0% in the test on Phytophthora infestans and 15% in the test with Fusarium culmorum.

Take `CO/N=C(/C(=O)OC)c1cccc(C)c1CO/N=C(\C)c1nccc2ccccc12` [Example 44]: the activity at 31 ppm in the test on Phytophthora infestans is 15%; in the test on Septoria tritici, 2%.

For `CNC(=O)/C(=N/OC)c1cccc(C)c1CO/N=C(\C)c1nccc2ccccc12` [Example 45], the activity at 31 ppm is 0% with Phytophthora infestans, 6% in the test with Septoria tritici and 4% in the test on Fusarium culmorum.

For `CO/N=C(/C(=O)OC)c1cccc(C)c1CO/N=C(\C)c1cnc(C)c(F)c1` [Example 100], the activity at 31 ppm with Phytophthora infestans came out at 0%; in the test on Septoria tritici, 19%; in the test on Fusarium culmorum, 12%.

Turning to `CO/N=C(/C(=O)OC)c1cccc(C)c1CO/N=C(\C)c1cccc(C(F)(F)F)n1` [Example 1], the activity at 31 ppm with Septoria tritici was 10%.

For `CNC(=O)/C(=N/OC)c1cccc(C)c1CO/N=C(\C)c1cc2ccccc2cn1` [Example 67], the values for the activity at 31 ppm in the test on Phytophthora infestans, in the test on Septoria tritici and in the test with Fusarium culmorum were 0%, 5% and 9%, respectively.

Regarding `CO/N=C(/C(=O)OC)c1cccc(C)c1CO/N=C(\C)c1cc(-c2cccc(C(F)(F)F)c2)sn1` [Example 35], the activity at 31 ppm with Fusarium culmorum turned out to be 20%.

As for `CNC(=O)/C(=N/OC)c1cccc(C)c1CO/N=C(\C)c1cccc(OC)n1` [Example 3], the activity at 31 ppm in the test on Phytophthora infestans worked out at 0%; with Septoria tritici, 4%; in the test on Fusarium culmorum it was 6%.

With `CNC(=O)/C(=N/OC)c1cccc(C)c1CO/N=C(\C)c1cc(C)ccn1` [Example 26], the results for the activity at 31 ppm in the test with Phytophthora infestans, with Septoria tritici and with Fusarium culmorum were 0%, 7% and 12%, respectively.

In the case of `CNC(=O)/C(=N/OC)c1cccc(C)c1CO/N=C(\C)c1cc(-c2ccc(Cl)cc2)sn1` [Example 8], in the test on Phytophthora infestans, the activity at 31 ppm is 6%.
